In test [1] the test system is Escherichia coli. The test is described as follows: Antibacterial activity against tolC-deficient Escherichia coli JW5503-1 by broth microdilution method. The test is classed as functional.
For test [2], the system named is Escherichia coli. Put plainly: Antibacterial activity against wild type Escherichia coli MC4100 by broth microdilution method. The test is classed as functional. (Dilution methods test growth across graded concentrations, often in twofold steps.)
For test [3], the system named is Escherichia coli. The test is described as follows: Antibacterial activity against fluoroquinolone-resistant Escherichia coli CH10 harboring gyrA S83L D87N, parC S80I E84G, AcrA+ by broth microdilution method. The test is classed as functional.
Test [4] concerns Staphylococcus aureus. Put plainly: Antibacterial activity against wild type methicillin-susceptible Staphylococcus aureus ATCC 49951 by broth microdilution method. The test is classed as functional.
Test [5] deals with Staphylococcus aureus. Put plainly: Antibacterial activity against fluoroquinolone-resistant Staphylococcus aureus NB01006-AVR005 harboring gyrA S84L, parC S80F, parE E471K by broth microdilution method. The test is classed as functional.
The subject of test [6] is Pseudomonas aeruginosa. Put plainly: Antibacterial activity against Pseudomonas aeruginosa K1542 deficient with mexX, mexB by broth microdilution method. The test is classed as functional.
Test [7] concerns Escherichia coli. Put plainly: Antibacterial activity against wild type Escherichia coli ATCC 25922 by broth microdilution method. The test is classed as functional.
Test [8] relates to Escherichia coli. Put plainly: Antibacterial activity against tolC-deficient Escherichia coli NB27005-CDY0039 expressing gyrA S83L […], parC S80I mutant by broth microdilution method. The test is classed as functional.
For test [9], the system named is Pseudomonas aeruginosa. Put plainly: Antibacterial activity against mexX, mexB deficient Pseudomonas aeruginosa NB52023-CDK006 harboring gyrAT83I and parC S87L by broth microdilution method. The test is classed as functional.
Test [10] can be described thus: Inhibition of Escherichia coli recombinant gyrase A2B2 assessed as reduction of pHOT-1 supercoiling after 90 mins.
For test [11], the system named is Pseudomonas aeruginosa. The test is described as follows: Antibacterial activity against mexX, mexB deficient Pseudomonas aeruginosa NB52023-CDK005 harboring gyrAT83I by broth microdilution method. The test is classed as functional.
For test [12], the system named is Escherichia coli. Put plainly: Antibacterial activity against wild type Escherichia coli BW5328/pAH69 by broth microdilution method. The test is classed as functional.
The subject of test [13] is Escherichia coli. The test is described as follows: Antibacterial activity against Escherichia coli imp-4213 by broth microdilution method. The test is classed as functional.
The test system of test [14] is Staphylococcus aureus. Put plainly: Antibacterial activity against wild type Staphylococcus aureus ATCC 29213 by broth microdilution method. The test is classed as functional.
In test [15] the test system is Pseudomonas aeruginosa. Put plainly: Antibacterial activity against wild type Pseudomonas aeruginosa PAO1 by broth microdilution method. The test is classed as functional.

≈ marks a conversion by molar mass, not a printed value.

What is called MIC is the least concentration at which growth counts as inhibited. Read a high MIC as weaker potency. A word on the IC50: it is the point on the concentration scale where inhibition reaches its midpoint.

Take `C=CCN1CCN(c2cc3c(cc2F)c(=O)c(C(=O)O)cn3C2CC2)CC1`: the MIC is ≤ 0.03 µg/mL in test [1]; 0.06 µg/mL (≈ 0.162 µM) in test [2]; > 32 µg/mL in test [3]; 0.125 µg/mL (≈ 0.337 µM) in [4]; 32 µg/mL (≈ 86.2 µM) in [5]; 0.25 µg/mL (≈ 0.673 µM) in test [6]. Besides, the minimum inhibitory concentration (MIC) is ≤ 0.03 µg/mL in [7]; 2 µg/mL (≈ 5.38 µM) in test [8]; 32 µg/mL (≈ 86.2 µM) in test [9]; 4 µg/mL (≈ 10.8 µM) in [11]; 0.06 µg/mL (≈ 0.162 µM) in test [12]; ≤ 0.03 µg/mL in test [13]. For the same compound, the results for the minimal inhibitory concentration (MIC) in [14] and in test [15] were 0.125 µg/mL (≈ 0.337 µM) and 1 µg/mL (≈ 2.69 µM), respectively. Also, the IC50 in [10] worked out at 580 nM.
For the compound `O=CN1CCN(c2cc3c(cc2F)c(=O)c(C(=O)O)cn3C2CC2)CC1`, the MIC in test [1] is ≤ 0.03 µg/mL; in [2], 0.25 µg/mL (≈ 0.696 µM); in test [3], > 32 µg/mL; in test [4] it was 0.25 µg/mL (≈ 0.696 µM); in [5], 32 µg/mL (≈ 89 µM); in test [6], 0.25 µg/mL (≈ 0.696 µM). Also, the minimal inhibitory concentration (MIC) in [7] is 0.125 µg/mL (≈ 0.348 µM); in test [8], 4 µg/mL (≈ 11.1 µM); in test [9], 32 µg/mL (≈ 89 µM); in test [11], 16 µg/mL (≈ 44.5 µM); in test [12], 0.125 µg/mL (≈ 0.348 µM); in test [13], ≤ 0.03 µg/mL. Also, the minimum inhibitory concentration (MIC) in test [14] is 0.25 µg/mL (≈ 0.696 µM); in [15], 2 µg/mL (≈ 5.57 µM). Also, the IC50 in [10] amounted to 250 nM.
Turning to `O=C(O)c1cn(C2CC2)c2cc(N3CCN(Cc4cccc(CN5CCN(c6cc7c(cc6F)c(=O)c(C(=O)O)cn7C6CC6)CC5)c4)CC3)c(F)cc2c1=O`, the minimal inhibitory concentration (MIC) was 0.06 µg/mL (≈ 0.0784 µM) in [1]; 2 µg/mL (≈ 2.61 µM) in test [2]; > 32 µg/mL in test [3]; 0.25 µg/mL (≈ 0.327 µM) in test [4]; 32 µg/mL (≈ 41.8 µM) in [5]; 8 µg/mL (≈ 10.5 µM) in [6]. Moreover, the minimum inhibitory concentration (MIC) was 1 µg/mL (≈ 1.31 µM) in test [7]; > 32 µg/mL in test [8]; > 32 µg/mL in test [9]; > 32 µg/mL in test [11]; 2 µg/mL (≈ 2.61 µM) in test [12]; ≤ 0.03 µg/mL in test [13]. The values for the MIC in test [14] and in test [15] were 0.5 µg/mL (≈ 0.654 µM) and 32 µg/mL (≈ 41.8 µM), respectively. Moreover, the IC50 in [10] is 1180 nM.
Consider `O=C(O)c1cn(C2CC2)c2cc(N3CCN(CCOCCOCCOCCOCCOCCOCCOCCN4CCN(c5cc6c(cc5F)c(=O)c(C(=O)O)cn6C5CC5)CC4)CC3)c(F)cc2c1=O`, for which the MIC in [1] was 0.125 µg/mL (≈ 0.125 µM); in test [2] it was 4 µg/mL (≈ 4.01 µM); in test [3], > 32 µg/mL; in [4] it was 1 µg/mL (≈ 1 µM); in test [5], > 32 µg/mL; in [6] it was 16 µg/mL (≈ 16 µM). Moreover, the minimal inhibitory concentration (MIC) was 2 µg/mL (≈ 2.01 µM) in [7]; 8 µg/mL (≈ 8.02 µM) in [8]; > 32 µg/mL in test [9]; > 32 µg/mL in [11]; 4 µg/mL (≈ 4.01 µM) in test [12]; 4 µg/mL (≈ 4.01 µM) in test [13]. The minimum inhibitory concentration (MIC) was 4 µg/mL (≈ 4.01 µM) in [14] and 16 µg/mL (≈ 16 µM) in test [15]. In test [10], the 50% inhibitory concentration (IC50) was 1380 nM.
Consider `Cc1cc(C(=O)N2CCN(c3cc4c(cc3F)c(=O)c(C(=O)O)cn4C3CC3)CC2)cc(C(=O)N2CCN(c3cc4c(cc3F)c(=O)c(C(=O)O)cn4C3CC3)CC2)c1`, for which the MIC in test [1] is ≤ 0.03 µg/mL; in [2], 0.5 µg/mL (≈ 0.62 µM); in test [3], > 32 µg/mL; in test [4] it was 0.5 µg/mL (≈ 0.62 µM); in [5], > 32 µg/mL; in test [6] it was 0.5 µg/mL (≈ 0.62 µM). Also, the minimal inhibitory concentration (MIC) in [7] is 0.5 µg/mL (≈ 0.62 µM); in [8], 16 µg/mL (≈ 19.8 µM); in [9], > 32 µg/mL; in [11], 8 µg/mL (≈ 9.92 µM); in test [12], 0.5 µg/mL (≈ 0.62 µM); in [13], ≤ 0.03 µg/mL. Besides, the MIC in [14] amounted to 1 µg/mL (≈ 1.24 µM); in test [15], 4 µg/mL (≈ 4.96 µM). In test [10], the 50% inhibitory concentration (IC50) stood at 1160 nM.
In the case of `O=C(O)c1cn(C2CC2)c2cc(N3CCN(C(=O)c4cccc(C(=O)N5CCN(c6cc7c(cc6F)c(=O)c(C(=O)O)cn7C6CC6)CC5)c4)CC3)c(F)cc2c1=O`, the minimal inhibitory concentration (MIC) in [1] is 0.125 µg/mL (≈ 0.158 µM); in test [2], > 32 µg/mL; in [3], > 32 µg/mL; in [4], 0.25 µg/mL (≈ 0.315 µM); in [5] it was > 32 µg/mL; in test [6] it was > 32 µg/mL. For the same compound, the MIC is > 32 µg/mL in test [7]; > 32 µg/mL in [8]; > 32 µg/mL in test [9]; > 32 µg/mL in test [11]; > 32 µg/mL in test [12]; 0.06 µg/mL (≈ 0.0757 µM) in test [13]. Also, the MIC is 2 µg/mL (≈ 2.52 µM) in test [14] and > 32 µg/mL in test [15]. Moreover, the 50% inhibitory concentration (IC50) in test [10] amounted to 110 nM.

Values taken from ChEMBL document CHEMBL3603745, “Synthesis of ciprofloxacin dimers for evaluation of bacterial permeability in atypical chemical space” (Bioorg Med Chem Lett, 2015).
